Assay results: publication PMC5750218, “Protein-inspired antibiotics active against vancomycin- and daptomycin-resistant bacteria” (Nature Communications, 2018)
Converted amounts (≈) assume the structure as drawn.

Columns and labels:
[1] = test system: Methicillin-resistant S. aureus ATCC 43300; assay: microbe, parasite or virus in culture; details: ATCC 43300, 24 h
Procedure: (§1) Antimicrobial activity of compounds was tested against a number of bacterial strains by broth microdilution (BMD) assay with MIC determination, including S. aureus (MSSA ATCC® 29213™, MRSA ATCC® 43300™, VISA NARSA NRS1, VISA NARSA NRS4), Streptococcus pneumoniae (MDR ATCC® 700677™) and Enterococcus faecium (MDR VanA ATCC® 51559™). ATCC strains were sourced from the American Type Culture Collection and NRS strains from NARSA (Network on Antimicrobial Resistance in S. aureus) via BEI Resources (www.beiresources.org). All compounds were prepared to 160 µg mL^−1 solution in water from a stock solution of 1 mM concentration.
[…] […] Standards ranged from 64 to 0.03 µg mL^−1 and compounds from 8 to 0.003 µg mL^−1 with final assay volumes of 100 µL per well. Gram-positive bacteria were cultured in Mueller Hinton broth (MHB) (Bactolaboratories, Cat. no. 211443) at 37 °C overnight. A sample of each culture was then diluted 40-fold in fresh MHB and incubated at 37 °C for 2–3 h. […] All the plates were covered and incubated at 37 °C for 24 h. MICs were the lowest concentration showing no visible growth.

[2] = test system: Multi-drug-resistant S. pneumoniae ATCC 700677; assay: microbe, parasite or virus in culture; details: ATCC 700677
Procedure: as §1
(§2) The compounds, along with standard antibiotics were serially diluted twofold across the wells of 96-well non-binding surface (NBS) polystyrene plates (Corning 3641). […] Standards ranged from 64 to 0.03 µg mL^−1 and compounds from 8 to 0.003 µg mL^−1 with final assay volumes of 100 µL per well. Gram-positive bacteria were cultured in Mueller Hinton broth (MHB) (Bactolaboratories, Cat. no. 211443) at 37 °C overnight. A sample of each culture was then diluted 40-fold in fresh MHB and incubated at 37 °C for 2–3 h. […] All the plates were covered and incubated at 37 °C for 24 h. MICs were the lowest concentration showing no visible growth.

[3] = test system: Vancomycin-intermediate S. aureus NRS1; assay: microbe, parasite or virus in culture; details: Vancomycin-intermediate NRS1
Procedure: as §1, §2

[4] = test system: Vancomycin-resistant (VanA) Enterococcus faecium ATCC 51559; assay: microbe, parasite or virus in culture; details: ATCC 51559
Procedure: as §1, §2

Cytotoxicity MTT assay [5] = format: cell-based, human; details: human
Procedure: Compound cytotoxicity was evaluated against HepG2 (ATCC-®HB-8065 liver hepatoceullular carcinoma) and HEK293 (ATCC®CRL-1573, embryonic kidney) human cell lines using standard (3-(4,5-dimethylthiazol-2-yl)−2,5-diphenyltetrazolium bromide (MTT) assay protocol with slight changes. In brief, HepG2 and HEK293 cells (assessed annually for mycoplasma contamination) were seeded as 1.5 × 10^4 cells per well in a clear 96-well tissue culture treated plate in a final volume of 100 μL in Dulbecco’s Modified Eagle Medium (DMEM)(GIBCO-Invitrogen #11995-073), in which 1% of FBS was added. Cells were incubated for 24 h at 37 °C, 5% CO2 to allow cells to attach to the plates. […] After the incubation, 0.4 mg mL^−1 MTT (3-(4,5-dimethylthiazol-2-yl)−2,5-diphenyltetrazolium bromide) (Invitrogen) was added to each well. The plates were then incubated for 2 h at 37 °C, 5% CO2. The media was removed, and purple formazan crystals were resuspended in 60 μL of DMSO. The absorbance was read at 570 nm using a Polarstar Omega plate reader. The data was then analysed by Prism software. Results are presented as the average percentage of control ± S.D. for each set of duplicate wells using the following equation: percent viability = (ABSTEST – ABSPOSITIVE CTRL / ABSUNTREATED –ABS POSITIVE CTRL)×100.

Cytotoxicity MTT assay [6] = format: cell-based, human; details: human; remark: listed apart in the source
Procedure: Compound cytotoxicity was evaluated against HepG2 (ATCC-®HB-8065 liver hepatoceullular carcinoma) and HEK293 (ATCC®CRL-1573, embryonic kidney) human cell lines using standard (3-(4,5-dimethylthiazol-2-yl)−2,5-diphenyltetrazolium bromide (MTT) assay protocol with slight changes. In brief, HepG2 and HEK293 cells (assessed annually for mycoplasma contamination) were seeded as 1.5 × 10^4 cells per well in a clear 96-well tissue culture treated plate in a final volume of 100 μL in Dulbecco’s Modified Eagle Medium (DMEM)(GIBCO-Invitrogen #11995-073), in which 1% of FBS was added. Cells were incubated for 24 h at 37 °C, 5% CO2 to allow cells to attach to the plates. Compounds prepared at 100 µM to 0.046 µM in threefold dilutions were added into each well and incubated for 24 h at 37 °C, 5% CO2. After the incubation, 0.4 mg mL^−1 MTT (3-(4,5-dimethylthiazol-2-yl)−2,5-diphenyltetrazolium bromide) (Invitrogen) was added to each well. The plates were then incubated for 2 h at 37 °C, 5% CO2. The media was removed, and purple formazan crystals were resuspended in 60 μL of DMSO. The absorbance was read at 570 nm using a Polarstar Omega plate reader. The data was then analysed by Prism software. Results are presented as the average percentage of control ± S.D. for each set of duplicate wells using the following equation: percent viability = (ABSTEST – ABSPOSITIVE CTRL / ABSUNTREATED –ABS POSITIVE CTRL)×100.

Structure (SMILES)	MIC MRSA [1]	MIC MDR S.P. [2]	MIC VISA [3]	MIC VRE [4]	CC50 at 24 h (Cytotoxicity MTT assay [5])	CC50 at 24 h (Cytotoxicity MTT assay [6])
CCCCCCCCCC(=O)NCC(=O)N[C@@H](CO)C(=O)N[C@@H](CO)C(=O)N[C@@H](CCCCN)C(=O)N[C@@H](CO)C(=O)N1CCC[C@H]1C(=O)N[C@@H](CO)C(=O)N[C@@H](CCCCN)C(=O)N[C@@H](CCCCN)C(=O)N[C@@H](CCCCN)C(=O)N[C@@H](CCCCN)C(=O)N[C@@H](CCCCN)C(=O)N[C@@H](CCCCN)C(=O)N1CCC[C@H]1C(=O)NCC(=O)N[C@@H](CC(=O)O)C(=O)N[C@@H](CSSCCNC(=O)[C@H]1NC(=O)[C@H]2NC(=O)[C@H](NC(=O)[C@@H]3NC(=O)[C@H](CC(N)=O)NC(=O)[C@H](NC(=O)[C@@H](CC(C)C)NC)[C@H](O)c4ccc(c(Cl)c4)Oc4cc3cc(c4O[C@@H]3O[C@H](CO)[C@@H](O)[C@H](O)[C@H]3O[C@H]3C[C@](C)(N)[C@H](O)[C@H](C)O3)Oc3ccc(cc3Cl)[C@H]2O)c2ccc(O)c(c2)-c2c(O)cc(O)cc21)C(N)=O [Compound 6]	2.5 µg/mL (≈ 0.725 µM)	3 µg/mL (≈ 0.87 µM)	>8 µg/mL	1.25 µg/mL (≈ 0.362 µM)	> 100 µM	> 100 µM
CCCCCCCCCCCC(=O)NCC(=O)N[C@@H](CO)C(=O)N[C@@H](CO)C(=O)N[C@@H](CCCCN)C(=O)N[C@@H](CO)C(=O)N1CCC[C@H]1C(=O)N[C@@H](CO)C(=O)N[C@@H](CCCCN)C(=O)N[C@@H](CCCCN)C(=O)N[C@@H](CCCCN)C(=O)N[C@@H](CCCCN)C(=O)N[C@@H](CCCCN)C(=O)N[C@@H](CCCCN)C(=O)N1CCC[C@H]1C(=O)NCC(=O)N[C@@H](CC(=O)O)C(=O)N[C@@H](CSSCCNC(=O)[C@H]1NC(=O)[C@H]2NC(=O)[C@H](NC(=O)[C@@H]3NC(=O)[C@H](CC(N)=O)NC(=O)[C@H](NC(=O)[C@@H](CC(C)C)NC)[C@H](O)c4ccc(c(Cl)c4)Oc4cc3cc(c4O[C@@H]3O[C@H](CO)[C@@H](O)[C@H](O)[C@H]3O[C@H]3C[C@](C)(N)[C@H](O)[C@H](C)O3)Oc3ccc(cc3Cl)[C@H]2O)c2ccc(O)c(c2)-c2c(O)cc(O)cc21)C(N)=O [Compound 7]	0.09 µg/mL (≈ 0.0259 µM)	0.06 µg/mL (≈ 0.0173 µM)	1 µg/mL (≈ 0.288 µM)	0.02 µg/mL (≈ 0.00575 µM)	65 µM	89 µM
CCCCCCCCCCCCCCCC(=O)NCC(=O)N[C@@H](CO)C(=O)N[C@@H](CO)C(=O)N[C@@H](CCCCN)C(=O)N[C@@H](CO)C(=O)N1CCC[C@H]1C(=O)N[C@@H](CO)C(=O)N[C@@H](CCCCN)C(=O)N[C@@H](CCCCN)C(=O)N[C@@H](CCCCN)C(=O)N[C@@H](CCCCN)C(=O)N[C@@H](CCCCN)C(=O)N[C@@H](CCCCN)C(=O)N1CCC[C@H]1C(=O)NCC(=O)N[C@@H](CC(=O)O)C(=O)N[C@@H](CSSCCNC(=O)[C@H]1NC(=O)[C@H]2NC(=O)[C@H](NC(=O)[C@@H]3NC(=O)[C@H](CC(N)=O)NC(=O)[C@H](NC(=O)[C@@H](CC(C)C)NC)[C@H](O)c4ccc(c(Cl)c4)Oc4cc3cc(c4O[C@@H]3O[C@H](CO)[C@@H](O)[C@H](O)[C@H]3O[C@H]3C[C@](C)(N)[C@H](O)[C@H](C)O3)Oc3ccc(cc3Cl)[C@H]2O)c2ccc(O)c(c2)-c2c(O)cc(O)cc21)C(N)=O [Compound 9]	0.06 µg/mL (≈ 0.017 µM)	0.125 µg/mL (≈ 0.0354 µM)	2 µg/mL (≈ 0.566 µM)	8 µg/mL (≈ 2.26 µM)	4 µM	7 µM
CCCCCCCCCCCCCC(=O)NCC(=O)N[C@@H](CO)C(=O)N[C@@H](CO)C(=O)N[C@@H](CCCCN)C(=O)N[C@@H](CO)C(=O)N1CCC[C@H]1C(=O)N[C@@H](CO)C(=O)N[C@@H](CCCCN)C(=O)N[C@@H](CCCCN)C(=O)N[C@@H](CCCCN)C(=O)N1CCC[C@H]1C(=O)NCC(=O)N[C@@H](CC(=O)O)C(=O)N[C@@H](CSSCCNC(=O)[C@H]1NC(=O)[C@H]2NC(=O)[C@H](NC(=O)[C@@H]3NC(=O)[C@H](CC(N)=O)NC(=O)[C@H](NC(=O)[C@@H](CC(C)C)NC)[C@H](O)c4ccc(c(Cl)c4)Oc4cc3cc(c4O[C@@H]3O[C@H](CO)[C@@H](O)[C@H](O)[C@H]3O[C@H]3C[C@](C)(N)[C@H](O)[C@H](C)O3)Oc3ccc(cc3Cl)[C@H]2O)c2ccc(O)c(c2)-c2c(O)cc(O)cc21)C(N)=O [Compound 11]	0.16 µg/mL (≈ 0.0513 µM)	0.09 µg/mL (≈ 0.0288 µM)	0.5 µg/mL (≈ 0.16 µM)	0.125 µg/mL (≈ 0.04 µM)	9 µM	18 µM
CCCCCCCCCCCCCC(=O)NCC(=O)N[C@@H](CO)C(=O)N[C@@H](CO)C(=O)N[C@@H](CCCCN)C(=O)N[C@@H](CO)C(=O)N1CCC[C@H]1C(=O)N[C@@H](CO)C(=O)N[C@@H](CCCCN)C(=O)N[C@@H](CCCCN)C(=O)N[C@@H](CCCCN)C(=O)N1CCC[C@H]1C(=O)N[C@@H](CSSCCNC(=O)[C@H]1NC(=O)[C@H]2NC(=O)[C@H](NC(=O)[C@@H]3NC(=O)[C@H](CC(N)=O)NC(=O)[C@H](NC(=O)[C@@H](CC(C)C)NC)[C@H](O)c4ccc(c(Cl)c4)Oc4cc3cc(c4O[C@@H]3O[C@H](CO)[C@@H](O)[C@H](O)[C@H]3O[C@H]3C[C@](C)(N)[C@H](O)[C@H](C)O3)Oc3ccc(cc3Cl)[C@H]2O)c2ccc(O)c(c2)-c2c(O)cc(O)cc21)C(N)=O [Compound 12]	0.09 µg/mL (≈ 0.0305 µM)	0.06 µg/mL (≈ 0.0203 µM)	0.5 µg/mL (≈ 0.17 µM)	0.007 µg/mL (≈ 0.00237 µM)	26 µM	41 µM
CCCCCCCCCCCCCC(=O)NCC(=O)N[C@@H](CO)C(=O)N[C@@H](CCCCN)C(=O)N[C@@H](CCCCN)C(=O)N[C@@H](CCCCN)C(=O)N[C@@H](CCCCNC(=O)[C@H]1NC(=O)[C@H]2NC(=O)[C@H](NC(=O)[C@@H]3NC(=O)[C@H](CC(N)=O)NC(=O)[C@H](NC(=O)[C@@H](CC(C)C)NC)[C@H](O)c4ccc(c(Cl)c4)Oc4cc3cc(c4O[C@@H]3O[C@H](CO)[C@@H](O)[C@H](O)[C@H]3O[C@H]3C[C@](C)(N)[C@H](O)[C@H](C)O3)Oc3ccc(cc3Cl)[C@H]2O)c2ccc(O)c(c2)-c2c(O)cc(O)cc21)C(=O)O [Compound 16, nC13CO-GSKKK-K(Vancomycin)-OH]	0.06 µg/mL (≈ 0.0259 µM)	<0.003 µg/mL	0.007 µg/mL (≈ 0.00302 µM)	–	18 µM	53 µM
